In brackets after ≈: the same amount, converted by molar mass.
Tests used:
[1] = 0.1 N HCl aqueous solution (pH around 1); cited from earlier work
[2] = Precipitation after preparation of liquid lenalidomide compositions; format: physicochemical; conditions: a few minutes after lenalidomide was dissolved in an aqueous buffer at pH between 1.0 and 3.5
Protocol: A composition was prepared according to example 23 of WO 1998/03502. The solution contained 5.0 g lenalidomide, 22.5 g sodium chloride, 300.0 g phosphate buffer with pH 7.4 and demineralized water. The pH of the final composition was 7.4.
Similar results (i.e. precipitation) were obtained a few minutes after lenalidomide was dissolved in an aqueous buffer at pH between 1.0 and 3.5.
Thus, the composition of Trial 0 was not subjected to the stability study.
The composition of trial 4 was not subjected to the stability study.

- precipitation after dissolution [2]: precipitation
Structure (SMILES): Nc1cccc2c1CN(C1CCC(=O)NC1=O)C2=O (racemic) [Lenalidomide, 1-oxo-(2,6-dioxopiperidin-3-yl)-4-aminoisoindoline]
- solubility [1]: 18.0 mg/mL (≈ 69.4 mM)
